Test results: BindingDB's records for doi:10.1074/jbc.M003490200 (University of Virginia, 2000)
pKi: −log10 of the molar value.

The compounds below were run against T1, Leukotriene B4 receptor 2 (Homo sapiens, UniProt Q9NPC1).
T1 sequence (Q9NPC1 whole entry): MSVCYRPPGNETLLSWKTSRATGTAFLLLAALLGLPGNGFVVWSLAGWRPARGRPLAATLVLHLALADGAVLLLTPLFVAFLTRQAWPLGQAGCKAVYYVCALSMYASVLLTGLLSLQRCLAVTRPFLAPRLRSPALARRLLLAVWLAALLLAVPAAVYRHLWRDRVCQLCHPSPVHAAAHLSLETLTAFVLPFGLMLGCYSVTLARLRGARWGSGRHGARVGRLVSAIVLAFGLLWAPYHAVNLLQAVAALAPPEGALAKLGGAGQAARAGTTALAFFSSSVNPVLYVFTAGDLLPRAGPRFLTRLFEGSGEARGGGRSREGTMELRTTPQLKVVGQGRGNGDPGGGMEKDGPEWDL

| Compound | pKi |
| --- | --- |
| CCCCC/C=C\C\C=C/C=C/C=C/[C@@H](SC[C@H](N)C(=O)NCC(=O)O)[C@@H](O)CCCC(=O)O [5S-hydroxy-6R-(S-cysteinylglycinyl)-7E,9E,11E,14Z-eicosatetraenoic acid] | 8.46 |
| CCCCC/C=C\C\C=C/C=C/C=C/[C@@H](SC[C@H](N)C(=O)O)[C@@H](O)CCCC(=O)O [(5S-(5R*,6S*(S*),7E,9E,11Z,14Z))-6-((2-Amino-2-carboxyethyl)thio)-5-hydroxy-7,9,11,14-eicosatetraenoic acid] | 6.16 |
| CCCCCC=CCC=CC=CC=CC(SCC(NC(=O)CCC(N)C(=O)O)C(=O)NCC(=O)O)C(O)CCCC(=O)O (stereo unspecified) [CAS_5283121] | 8.47 |
| CC(C)(O)c1ccccc1CCC(S)c1cccc(C=Cc2ccc3ccc(Cl)cc3n2)c1 (stereo unspecified) [NSC_5311297] | < 5.00 |

Further compounds by rising pKi, results first:

| pKi | Compound |
| --- | --- |
| 5.13 | COc1cc(C(=O)NS(=O)(=O)c2ccccc2C)ccc1Cc1cn(C)c2ccc(NC(=O)OC3CCCC3)cc12 [cyclopentyl 3-(2-methoxy-4-((o-tolylsulfonyl)carbamoyl)benzyl)-1-methylindole-5-carbamate] |
| 5.44 | O=C(Nc1ccc2c(=O)cc(-c3nnn[nH]3)oc2c1)c1ccc(OCCCCc2ccccc2)cc1 [CAS_103177-37-3] |
